The numbers were not newly measured in patent US20070212388A1, “COMPOSITIONS COMPRISING POROUS ARTICLES AND USES IN IMPLANTABLE MEDICAL DEVICES” (Sahajanand Medical Technologies Pvt. Ltd., priority 2006, published 2007), which cites them from elsewhere.

The conditions of the data set: for solubility in water: general statement, no test described.

Regarding `O=c1c(-c2ccc(O)cc2)coc2cc(O)cc(O)c12` [Genistein, 5,7-dihydroxy-3-(4-hydroxyphenyl)-4H-1-benzopyran-4-one], the solubility in water result was “practically insoluble in water”.
Take `O=c1c(O)c(-c2ccc(O)c(O)c2)oc2cc(O)cc(O)c12` [Quercetin, 2-(3,4-dihydroxyphenyl)-3,5,7-trihydroxy-4H-1-benzopyran-4-one]: the solubility in water entry was “practically insoluble in water”.
With `O=c1c(-c2ccc(O)cc2)coc2cc(O[C@@H]3O[C@H](CO)[C@@H](O)[C@H](O)[C@H]3O)cc(O)c12` [Genistin], for the setting “compared with genistein”, the “water solubility relative to genistein” value was “greater water solubility than genistein”.
